Biological target: T1, cynomolgus BK1-receptor (Macaca fascicularis, UniProt Q3BCU0)
T1 construct: expressed in transfected cells; host or cells: CHO cells (homogenate)
T1 sequence (Q3BCU0 1-352): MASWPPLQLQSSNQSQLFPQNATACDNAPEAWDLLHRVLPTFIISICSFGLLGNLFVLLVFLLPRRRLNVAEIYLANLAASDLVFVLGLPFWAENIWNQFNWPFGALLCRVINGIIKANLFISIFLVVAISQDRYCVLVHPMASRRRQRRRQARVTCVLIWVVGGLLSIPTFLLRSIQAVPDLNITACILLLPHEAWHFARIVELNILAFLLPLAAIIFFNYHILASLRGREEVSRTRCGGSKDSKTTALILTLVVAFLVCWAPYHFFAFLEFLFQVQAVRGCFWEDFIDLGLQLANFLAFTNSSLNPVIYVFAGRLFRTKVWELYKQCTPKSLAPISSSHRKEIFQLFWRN
Assay: cynoBK1-receptor binding assay
Conditions: CHO cells expressing cynomolgus BK1-receptor, radioligand kallidine (DesArg10,Leu9); for inhibition at 10 µM: at 10 μgmol/L
Protocol: Description of the Method of Binding the cynoBK1-Receptor
CHO cells that express the cynomolgus BK1-receptor are cultivated in “HAM'S F-12 Medium”. The medium is removed from confluent cultures, the cells are washed with PBS buffer, scraped off or detached using Versene and isolated by centrifuging. Then the cells are homogenised in suspension, the homogenate is centrifuged and resuspended. After the protein content has been determined 200 μl of the homogenate (50 to 250 μg protein/assay) are incubated for 60-180 minutes at ambient temperature with 0.5 to 5.0 nM kallidine (DesArg10,Leu9), [3,4-Prolyl-3,43H(N)] and increasing concentrations of the test substance in a total volume of 250 μl. The incubation is stopped by rapid filtration through GF/B glass fibre filters that have been pre-treated with polyethyleneimine (0.3%). The radioactivity bound to the protein is measured with a TopCount NXT. The radioactivity bound in the presence of 1.0 μM kallidine (DesArg10) is defined as non-specific binding. The concentration binding curve may be analysed using computer-aided non-linear curve fitting to determine the corresponding Ki value for the test substance.
Test results of the cynoBK1-receptor binding assay: […]

Structure (SMILES)	Ki [nM]	inhibition at 10 µM [%]
O=C(NC1(C(=O)NCc2ccc(Nc3ccccc3C(F)(F)F)cc2)CC1)c1cncc(C(F)(F)F)c1 [(26)]	–	109
Nc1ccc(C(=O)N[C@@]2(C(=O)NCc3ncc(Nc4ccc(Cl)cc4C(F)(F)F)cc3F)CCOC2)cn1 [(293)]	65	–
O=C(NC1(C(=O)NCc2ccc(Nc3ccc(Cl)cc3C(F)(F)F)cn2)CC1)c1ccnnc1 [(209)]	73	–
CNc1ncc(C(=O)N[C@@]2(C(=O)NCc3ncc(Nc4c(F)cccc4C(F)(F)F)cc3Cl)CCOC2)cn1 [(241)]	68	–
Nc1ccc(C(=O)N[C@@]2(C(=O)NCc3ccc(Nc4ccccc4C(F)(F)F)cc3)CCOC2)cn1 [(57)]	77	111
CNc1ncc(C(=O)N[C@@]2(C(=O)NCc3ccc(Nc4ccc(Cl)cc4C(F)(F)F)cc3)CCOC2)cn1 [(323)]	69	–
CC(C(=O)N[C@@]1(C(=O)NCc2ccc(Nc3ccccc3C(F)(F)F)cc2)CCOC1)C(F)(F)F (stereo partly drawn) [(91)]	–	100
Cn1ccc(C(=O)NC2(C(=O)NCc3ccc(Nc4ccc(Br)cc4C(F)(F)F)cn3)CC2)cc1=O [(177)]	–	99
O=C(N[C@@]1(C(=O)NCc2ccc(Nc3ccccc3C(F)(F)F)cc2)CCOC1)c1cnco1 [(85)]	–	93
CNc1cncc(C(=O)N[C@@]2(C(=O)NCc3ncc(Nc4ccc(Cl)cc4C(F)(F)F)cc3F)CCOC2)c1 [(319)]	58	–
O=C(N[C@@]1(C(=O)NCc2ccc(Nc3ccccc3C(F)(F)F)cc2)CCOC1)c1ccnc(O)c1 [(86)]	100	108
O=C(NC1(C(=O)NCc2ccc(Nc3ccc(C(F)(F)F)cc3C(F)(F)F)cn2)CC1)c1cncnc1 [(52)]	312	63
O=C(NC1(C(=O)NCc2ccc(Nc3ccc(Cl)cc3C(F)(F)F)cn2)CC1)c1ccc(O)nc1 [(239)]	182	–
O=C(NC1(C(=O)NCc2ccc(Nc3ccccc3C(F)(F)F)cc2)CC1)c1ccccn1 [(21)]	–	68
O=C(NC1(C(=O)NCc2ccc(Nc3ccc(F)cc3Cl)cn2)CC1)c1cncnc1 [(190)]	–	91
COc1cncc(C(=O)NC2(C(=O)NCc3ccc(Nc4ccc(F)cc4C(F)(F)F)cn3)CC2)c1 [(376)]	61	–
CCN(c1ccccc1)c1ccc(CNC(=O)C2(NC(=O)c3cncnc3)CC2)cc1 [(111)]	–	20
CN1CC(C(=O)N[C@@]2(C(=O)NCc3ccc(Nc4ccccc4C(F)(F)F)cc3)CCOC2)CC1=O (stereo partly drawn) [(71)]	–	80
O=C(NC1(C(=O)NCc2ccc(Nc3ccc(Br)cc3C(F)(F)F)cn2)CC1)c1ccc(O)nc1 [(234)]	105	–
CCC(=O)NC1(C(=O)NCc2ccc(Nc3ccccc3C(F)(F)F)cc2)CC1 [(13)]	–	101
Cc1nnc(C(=O)NC2(C(=O)NCc3ccc(Nc4ccccc4C(F)(F)F)cc3)CC2)o1 [(27)]	–	104
O=C(N[C@@]1(C(=O)NCc2ccc(Nc3ccccc3C(F)(F)F)cc2)CCOC1)c1cnccn1 [(96)]	–	78
Nc1cc(C(=O)N[C@@]2(C(=O)NCc3ccc(Nc4ccccc4C(F)(F)F)cc3)CCOC2)ccn1 [(63)]	118	108
O=C(N[C@@]1(C(=O)NCc2ccc(Nc3ccccc3C(F)(F)F)cc2)CCOC1)c1cnc(O)nc1 [(90)]	135	109
N#Cc1ccccc1Nc1ccc(CNC(=O)C2(NC(=O)c3cncnc3)CC2)cc1 [(35)]	70	111
O=C(N[C@@]1(C(=O)NCc2ccc(Nc3c(F)cccc3C(F)(F)F)cn2)CCOC1)c1cncnc1 [(46)]	290	88
CNc1cncc(C(=O)NC2(C(=O)NCc3ccc(Nc4ccc(F)cc4C(F)(F)F)cn3)CC2)n1 [(168)]	235	90
Cn1cc(C(=O)N[C@@]2(C(=O)NCc3ccc(Nc4ccccc4C(F)(F)F)cc3)CCOC2)nn1 [(88)]	–	80
Nc1ccc(C(=O)N[C@@]2(C(=O)NCc3ccc(Nc4ccc(Cl)cc4C(F)(F)F)cc3)CCOC2)cn1 [(318)]	316	–

Further compounds by falling Ki, results first:

Ki [nM]	inhibition at 10 µM [%]	Structure (SMILES)
56	96	Nc1cncc(C(=O)N[C@@]2(C(=O)NCc3ccc(Nc4ccc(F)cc4C(F)(F)F)cn3)CCOC2)c1 [(157)]
48	–	Cc1cc(Nc2ccccc2C(F)(F)F)cnc1CNC(=O)C1(NC(=O)c2cncc(N)c2)CC1 [(375)]
42	104	O=C(NC1(C(=O)NCc2ncc(Nc3c(F)cccc3C(F)(F)F)cc2F)CC1)c1cccc(O)n1 [(136)]
41	–	O=C(N[C@@]1(C(=O)NCc2ccc(Nc3ccc(Cl)cc3C(F)(F)F)cc2)CCOC1)c1cncnc1 [(332)]
40	–	Cc1ncc(C(=O)N[C@@]2(C(=O)NCc3ccc(Nc4c(F)cccc4C(F)(F)F)cc3F)CCOC2)cn1 [(291)]
40	–	Cc1ccc(C(=O)NC2(C(=O)NCc3ccc(Nc4ccc(Br)cc4C(F)(F)F)cn3)CC2)cn1 [(315)]
36	–	O=C(N[C@@]1(C(=O)NCc2ncc(Nc3ccc(Cl)cc3C(F)(F)F)cc2Cl)CCOC1)c1cncc(O)c1 [(286)]
28	–	CCCNc1ccc(C(=O)NC2(C(=O)NCc3ccc(Nc4ccc(Br)cc4C(F)(F)F)cn3)CC2)cn1 [(335)]
28	–	N#Cc1ccccc1Nc1ccc(CNC(=O)C2(NC(=O)c3cncnc3)CC2)c(F)c1 [(296)]
22	–	COc1cc(C(=O)NC2(C(=O)NCc3ccc(Nc4ccc(Cl)cc4C(F)(F)F)cn3)CC2)on1 [(356)]
21	–	O=C(NC1(C(=O)NCc2ccc(Nc3ccc(F)cc3C(F)(F)F)cn2)CC1)c1cnc(C(F)(F)F)nc1 [(246)]
20	–	CCNc1ccc(C(=O)NC2(C(=O)NCc3ccc(Nc4ccc(Br)cc4C(F)(F)F)cn3)CC2)cn1 [(334)]
19	104	O=C(NC1(C(=O)NCc2ccc(Nc3ccc(Cl)cc3Br)cn2)CC1)c1cncnc1 [(167)]
18	–	CC(C)c1ncc(C(=O)NC2(C(=O)NCc3ccc(Nc4ccc(F)cc4C(F)(F)F)cn3)CC2)cn1 [(245)]
17	104	N#Cc1cc(Cl)ccc1Nc1ccc(CNC(=O)C2(NC(=O)c3cncnc3)CC2)cc1 [(162)]
16	–	O=C(N[C@@]1(C(=O)NCc2ncc(Nc3ccc(Cl)cc3C(F)(F)F)cc2Cl)CCOC1)c1cncnc1 [(278)]
15	–	O=C(N[C@@]1(C(=O)NCc2ncc(Nc3ccc(Cl)cc3C(F)(F)F)cc2F)CCOC1)c1cncnc1 [(242)]

Ki [nM]	inhibition at 10 µM [%]	Structure (SMILES)
15	–	O=C(N[C@@]1(C(=O)NCc2ncc(Nc3ccc(F)cc3C(F)(F)F)cc2Cl)CCOC1)c1cnc2[nH]cnc2c1 [(220)]
15	–	Cc1ncc(C(=O)NC2(C(=O)NCc3ccc(Nc4ccc(Cl)cc4C(F)F)cn3)CC2)cn1 [(386)]
15	–	COc1ncc(C(=O)N[C@@]2(C(=O)NCc3ncc(Nc4ccc(Cl)cc4C(F)(F)F)cc3F)CCOC2)cn1 [(314)]
14	106	O=C(NC1(C(=O)NCc2ccc(Nc3ccc(Br)cc3C(F)(F)F)cn2)CC1)c1cccc(O)n1 [(140)]
13	–	Cn1ncc(C(=O)NC2(C(=O)NCc3ccc(Nc4ccc(F)cc4C(F)(F)F)cn3)CC2)cc1=O [(221)]
12	106	O=C(NC1(C(=O)NCc2ccc(Nc3ccc(F)cc3C(F)(F)F)cn2)CC1)c1cnc2[nH]cnc2c1 [(143)]
11	107	COc1ncc(C(=O)NC2(C(=O)NCc3ncc(Nc4c(F)cccc4C(F)(F)F)cc3F)CC2)cn1 [(129)]
8.5	107	Nc1cncc(C(=O)N[C@@]2(C(=O)NCc3ncc(Nc4ccc(F)cc4C(F)(F)F)cc3F)CCOC2)c1 [(156)]
7.9	–	Cc1ncc(C(=O)N[C@@]2(C(=O)NCc3ncc(Nc4ccc(Cl)cc4C(F)(F)F)cc3Cl)CCOC2)cn1 [(282)]
7.2	–	CNc1ccc(C(=O)NC2(C(=O)NCc3ccc(Nc4ccc(Br)cc4C(F)(F)F)cn3)CC2)cn1 [(343)]
6.2	113	O=C(NC1(C(=O)NCc2ccc(Nc3ccc(F)cc3C(F)(F)F)cc2)CC1)c1cncs1 [(29)]
5.5	110	O=C(NC1(C(=O)NCc2ccc(Nc3ccccc3C(F)(F)F)cn2)CC1)c1cncnc1 [(39)]
3.7	–	Nc1cncc(C(=O)NC2(C(=O)NCc3ncc(Nc4ccc(F)cc4C(F)(F)F)cc3Cl)CC2)c1 [(218)]
3.4	106	CC(NC(=O)C1(NC(=O)c2cncnc2)CC1)c1ccc(Nc2ccc(Cl)cc2C(F)(F)F)cn1 (stereo not drawn) [(164)]
1.9	–	CC(NC(=O)C1(NC(=O)c2cncnc2)CC1)c1ncc(Nc2ccc(Br)cc2C(F)(F)F)cc1F (stereo not drawn) [(213)]
1.9	–	Cc1ncc(C(=O)NC2(C(=O)NCc3ncc(Nc4ccc(F)cc4C(F)(F)F)cc3C)CC2)cn1 [(344)]
